Results published in patent US11278684B2, “Device and method of delivering particles in the upper respiratory tract” (SERVICES MEDICAUX ARNOLD ET JOAN ZIDULKA INC., priority 2016, dated 2022).

Assay: two rounds of testing on a patient with ciclesonide administered by the oral inhalation / nasal exhalation method
Assay type: in vivo
Details: one patient; two sprays of 200 micrograms aerosolized ciclesonide, four to six oral inhalations each followed by nasal exhalation, morning and evening for two weeks; FIG. 3 device
From the text: The Applicant has performed two rounds of testing on a patient suffering from post-nasal drip and upper laryngeal syndrome with an interval of two weeks between the rounds, each round consisting in administering a therapeutically effective dose of ciclesonide using the method of the present invention. […] In some embodiments, the therapeutically effective dose of ciclesonide for the treatment of upper airway cough syndrome is from 25 to 800 micrograms. Use of ciclesonide for the treatment of upper airway cough syndrome provides the advantage of avoiding fungal infections typically associated with administration of corticosteroid in the posterior nasal region, pharynx and the larynx.
In conducting the rounds of testing, the Applicant used the embodiment of the oral delivery device of the present invention shown in FIG. 3. […] It should be noted that in some embodiments, the effective volume is greater or smaller than 375 milliliters. In operation, the patient released two sprays of aerosolized ciclesonide into the oral delivery device, each one of the sprays containing 200 micrograms of ciclesonide, and performed four to six oral inhalations, each one of the inhalations being followed by a nasal exhalation into the ambient atmosphere. Each one of the inhalations drew ambient air into the oral delivery device to sweep in an additional amount of aerosolized ciclesonide. […]

CC(C)C(=O)OCC(=O)[C@@]12O[C@H](C3CCCCC3)O[C@@H]1C[C@H]1[C@@H]3CCC4=CC(=O)C=C[C@]4(C)[C@H]3[C@@H](O)C[C@@]12C [ciclesonide]
patient-reported symptoms of upper airway cough syndrome following each round: significant alleviation of the symptoms
